These results are taken from ChEMBL document CHEMBL3991601, “The target landscape of clinical kinase drugs” (Science, 2017).

Calls of active or inactive are those of the source. For most assays here, no stated cut-off is given here; in the data, actives have a measured Kd and inactives only a lower limit.

The target of test [1] is Tyrosine-protein kinase SYK (Homo sapiens, UniProt P43405).
In another test the target is T1, Ephrin type-B receptor 6 (Homo sapiens, UniProt O15197).
T1 sequence (O15197 whole entry): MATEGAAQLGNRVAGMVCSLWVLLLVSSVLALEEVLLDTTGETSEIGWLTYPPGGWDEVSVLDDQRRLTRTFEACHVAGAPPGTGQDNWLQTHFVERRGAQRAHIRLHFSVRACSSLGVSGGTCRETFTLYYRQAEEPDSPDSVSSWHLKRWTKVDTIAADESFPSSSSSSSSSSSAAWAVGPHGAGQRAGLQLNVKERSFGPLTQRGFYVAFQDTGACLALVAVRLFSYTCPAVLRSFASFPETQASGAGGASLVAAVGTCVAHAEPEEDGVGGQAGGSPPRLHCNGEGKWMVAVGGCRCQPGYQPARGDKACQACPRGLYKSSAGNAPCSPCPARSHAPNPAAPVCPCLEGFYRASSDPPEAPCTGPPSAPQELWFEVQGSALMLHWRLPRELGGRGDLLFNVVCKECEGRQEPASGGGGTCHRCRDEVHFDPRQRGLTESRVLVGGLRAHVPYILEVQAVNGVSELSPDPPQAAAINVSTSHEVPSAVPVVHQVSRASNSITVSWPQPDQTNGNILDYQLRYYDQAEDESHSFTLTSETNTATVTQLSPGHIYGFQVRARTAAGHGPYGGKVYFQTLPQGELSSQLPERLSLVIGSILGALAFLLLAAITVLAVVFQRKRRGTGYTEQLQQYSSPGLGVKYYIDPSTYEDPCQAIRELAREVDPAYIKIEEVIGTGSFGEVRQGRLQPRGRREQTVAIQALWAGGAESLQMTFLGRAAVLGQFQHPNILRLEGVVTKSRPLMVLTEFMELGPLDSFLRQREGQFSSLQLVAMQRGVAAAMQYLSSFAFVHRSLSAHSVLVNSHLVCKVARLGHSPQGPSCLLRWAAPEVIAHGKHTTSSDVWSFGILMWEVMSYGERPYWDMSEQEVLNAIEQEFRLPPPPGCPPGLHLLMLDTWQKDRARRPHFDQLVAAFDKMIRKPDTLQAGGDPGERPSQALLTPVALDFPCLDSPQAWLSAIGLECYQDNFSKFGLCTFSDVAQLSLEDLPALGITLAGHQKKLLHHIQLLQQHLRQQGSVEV

Test [2] concerns the target T2, General transcription and DNA repair factor IIH helicase subunit XPD (Homo sapiens, UniProt P18074).
T2 sequence (P18074 whole entry): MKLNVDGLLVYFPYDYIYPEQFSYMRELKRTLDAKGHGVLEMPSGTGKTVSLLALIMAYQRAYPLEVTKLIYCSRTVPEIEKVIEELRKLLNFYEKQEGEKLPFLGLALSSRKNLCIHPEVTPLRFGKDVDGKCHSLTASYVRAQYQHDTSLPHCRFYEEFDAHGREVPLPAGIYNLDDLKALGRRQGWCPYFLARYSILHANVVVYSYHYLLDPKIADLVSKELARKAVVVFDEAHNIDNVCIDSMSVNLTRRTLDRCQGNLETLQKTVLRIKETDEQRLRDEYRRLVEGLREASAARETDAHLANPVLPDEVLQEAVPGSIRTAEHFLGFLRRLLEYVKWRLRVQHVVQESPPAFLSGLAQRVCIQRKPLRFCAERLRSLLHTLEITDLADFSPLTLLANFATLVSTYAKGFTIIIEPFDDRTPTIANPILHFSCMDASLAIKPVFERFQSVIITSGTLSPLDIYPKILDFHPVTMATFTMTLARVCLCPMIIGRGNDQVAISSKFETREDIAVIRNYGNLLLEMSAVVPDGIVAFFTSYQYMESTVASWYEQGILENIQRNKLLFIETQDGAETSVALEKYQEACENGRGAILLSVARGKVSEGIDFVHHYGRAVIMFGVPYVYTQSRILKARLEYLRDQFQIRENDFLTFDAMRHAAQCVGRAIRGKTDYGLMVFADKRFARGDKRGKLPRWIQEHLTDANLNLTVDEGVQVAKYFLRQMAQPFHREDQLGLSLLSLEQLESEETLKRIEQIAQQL
Conditions: read-out: Kd apparent; k-562, colo 205, sk-n-be(2) and mv-4-11.

The target of test [3] is Tyrosine-protein kinase Fer (Homo sapiens, UniProt P16591).
For test [4], the target named is Calcium/calmodulin-dependent protein kinase type II subunit gamma (Homo sapiens, UniProt Q13555).
In the next test the target is LIM domain kinase 1 (Homo sapiens, UniProt P53667).
The target in test [5] is T3, Phenylalanine--tRNA ligase beta subunit (Homo sapiens, UniProt Q9NSD9).
T3 sequence (Q9NSD9 whole entry): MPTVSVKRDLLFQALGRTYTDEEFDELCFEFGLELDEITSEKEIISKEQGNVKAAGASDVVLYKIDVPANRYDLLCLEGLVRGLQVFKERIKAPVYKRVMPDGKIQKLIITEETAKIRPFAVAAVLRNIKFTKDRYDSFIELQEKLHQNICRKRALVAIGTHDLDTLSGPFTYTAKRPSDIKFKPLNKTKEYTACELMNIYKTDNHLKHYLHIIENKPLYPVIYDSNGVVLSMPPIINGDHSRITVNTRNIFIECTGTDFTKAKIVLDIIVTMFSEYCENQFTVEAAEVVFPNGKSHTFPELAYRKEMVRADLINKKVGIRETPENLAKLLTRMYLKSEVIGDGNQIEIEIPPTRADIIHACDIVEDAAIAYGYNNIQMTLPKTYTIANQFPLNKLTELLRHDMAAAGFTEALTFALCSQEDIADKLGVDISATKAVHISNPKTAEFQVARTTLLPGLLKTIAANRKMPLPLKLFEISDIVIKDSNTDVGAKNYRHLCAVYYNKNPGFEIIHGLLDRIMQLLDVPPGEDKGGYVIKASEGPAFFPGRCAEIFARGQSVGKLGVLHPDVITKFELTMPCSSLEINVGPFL

Test [6] has as its target AP2-associated protein kinase 1 (Homo sapiens, UniProt Q2M2I8).
The target of test [7] is Serine/threonine-protein kinase N1 (Homo sapiens, UniProt Q16512).
Test [8] deals with 5'-AMP-activated protein kinase catalytic subunit alpha-1 (Homo sapiens, UniProt Q13131).
Test [9] concerns the target Serine/threonine-protein kinase N2 (Homo sapiens, UniProt Q16513).

Calcium/calmodulin-dependent protein kinase type II subunit gamma, sequence (Q13555 whole entry, the tested form may be a part): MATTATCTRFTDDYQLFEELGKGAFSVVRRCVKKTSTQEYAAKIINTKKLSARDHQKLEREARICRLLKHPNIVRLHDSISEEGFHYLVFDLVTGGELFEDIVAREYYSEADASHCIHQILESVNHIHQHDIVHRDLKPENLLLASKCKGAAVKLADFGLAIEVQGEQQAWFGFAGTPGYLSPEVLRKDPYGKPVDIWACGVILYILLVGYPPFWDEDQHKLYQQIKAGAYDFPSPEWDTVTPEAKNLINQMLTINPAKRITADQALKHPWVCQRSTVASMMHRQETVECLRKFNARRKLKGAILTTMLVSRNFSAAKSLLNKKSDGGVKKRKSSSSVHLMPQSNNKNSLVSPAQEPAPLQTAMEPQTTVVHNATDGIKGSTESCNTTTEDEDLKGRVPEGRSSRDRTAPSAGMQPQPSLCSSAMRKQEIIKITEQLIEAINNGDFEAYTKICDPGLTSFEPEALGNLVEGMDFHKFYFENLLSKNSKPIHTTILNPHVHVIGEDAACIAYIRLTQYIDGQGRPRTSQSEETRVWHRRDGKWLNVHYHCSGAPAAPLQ
LIM domain kinase 1, sequence (P53667 whole entry, the tested form may be a part): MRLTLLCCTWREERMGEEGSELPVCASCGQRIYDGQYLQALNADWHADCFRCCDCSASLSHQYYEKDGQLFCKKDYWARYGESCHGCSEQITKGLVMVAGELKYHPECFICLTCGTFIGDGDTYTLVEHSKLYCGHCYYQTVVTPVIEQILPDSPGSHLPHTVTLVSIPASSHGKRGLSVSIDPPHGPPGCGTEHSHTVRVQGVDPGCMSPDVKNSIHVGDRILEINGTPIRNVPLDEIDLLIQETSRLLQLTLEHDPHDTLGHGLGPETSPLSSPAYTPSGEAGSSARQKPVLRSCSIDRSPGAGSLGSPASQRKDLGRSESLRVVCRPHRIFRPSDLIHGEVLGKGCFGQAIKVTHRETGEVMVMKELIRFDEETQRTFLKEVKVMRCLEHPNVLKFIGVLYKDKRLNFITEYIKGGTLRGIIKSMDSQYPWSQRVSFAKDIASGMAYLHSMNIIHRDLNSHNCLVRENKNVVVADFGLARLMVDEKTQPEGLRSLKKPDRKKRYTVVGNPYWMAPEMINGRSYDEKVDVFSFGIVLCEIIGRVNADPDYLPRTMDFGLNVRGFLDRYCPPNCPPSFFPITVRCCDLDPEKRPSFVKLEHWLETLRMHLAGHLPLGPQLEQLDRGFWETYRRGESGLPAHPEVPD
Tyrosine-protein kinase Fer, sequence (P16591 whole entry): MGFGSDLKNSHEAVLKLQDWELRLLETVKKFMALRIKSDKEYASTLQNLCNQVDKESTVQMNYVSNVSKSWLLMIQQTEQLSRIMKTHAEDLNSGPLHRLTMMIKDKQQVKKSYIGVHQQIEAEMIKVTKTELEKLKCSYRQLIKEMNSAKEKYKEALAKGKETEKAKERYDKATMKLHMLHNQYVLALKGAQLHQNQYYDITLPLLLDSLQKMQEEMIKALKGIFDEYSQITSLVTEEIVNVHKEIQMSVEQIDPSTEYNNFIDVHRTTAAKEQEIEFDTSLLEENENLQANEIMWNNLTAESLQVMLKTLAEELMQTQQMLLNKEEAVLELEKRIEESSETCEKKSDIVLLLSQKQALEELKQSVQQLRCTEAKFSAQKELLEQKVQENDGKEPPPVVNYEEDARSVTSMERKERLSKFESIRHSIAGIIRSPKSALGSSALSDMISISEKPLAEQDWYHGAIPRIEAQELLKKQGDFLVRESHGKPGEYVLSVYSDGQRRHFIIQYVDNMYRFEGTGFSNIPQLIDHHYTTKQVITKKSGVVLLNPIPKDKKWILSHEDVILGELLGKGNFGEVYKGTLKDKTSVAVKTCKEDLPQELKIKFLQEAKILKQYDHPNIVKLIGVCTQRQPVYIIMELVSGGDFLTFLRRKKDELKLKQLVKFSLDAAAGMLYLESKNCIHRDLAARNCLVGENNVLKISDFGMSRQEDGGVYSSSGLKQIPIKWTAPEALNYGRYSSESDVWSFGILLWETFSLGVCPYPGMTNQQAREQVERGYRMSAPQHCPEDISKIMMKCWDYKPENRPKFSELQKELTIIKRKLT
AP2-associated protein kinase 1, sequence (Q2M2I8 whole entry): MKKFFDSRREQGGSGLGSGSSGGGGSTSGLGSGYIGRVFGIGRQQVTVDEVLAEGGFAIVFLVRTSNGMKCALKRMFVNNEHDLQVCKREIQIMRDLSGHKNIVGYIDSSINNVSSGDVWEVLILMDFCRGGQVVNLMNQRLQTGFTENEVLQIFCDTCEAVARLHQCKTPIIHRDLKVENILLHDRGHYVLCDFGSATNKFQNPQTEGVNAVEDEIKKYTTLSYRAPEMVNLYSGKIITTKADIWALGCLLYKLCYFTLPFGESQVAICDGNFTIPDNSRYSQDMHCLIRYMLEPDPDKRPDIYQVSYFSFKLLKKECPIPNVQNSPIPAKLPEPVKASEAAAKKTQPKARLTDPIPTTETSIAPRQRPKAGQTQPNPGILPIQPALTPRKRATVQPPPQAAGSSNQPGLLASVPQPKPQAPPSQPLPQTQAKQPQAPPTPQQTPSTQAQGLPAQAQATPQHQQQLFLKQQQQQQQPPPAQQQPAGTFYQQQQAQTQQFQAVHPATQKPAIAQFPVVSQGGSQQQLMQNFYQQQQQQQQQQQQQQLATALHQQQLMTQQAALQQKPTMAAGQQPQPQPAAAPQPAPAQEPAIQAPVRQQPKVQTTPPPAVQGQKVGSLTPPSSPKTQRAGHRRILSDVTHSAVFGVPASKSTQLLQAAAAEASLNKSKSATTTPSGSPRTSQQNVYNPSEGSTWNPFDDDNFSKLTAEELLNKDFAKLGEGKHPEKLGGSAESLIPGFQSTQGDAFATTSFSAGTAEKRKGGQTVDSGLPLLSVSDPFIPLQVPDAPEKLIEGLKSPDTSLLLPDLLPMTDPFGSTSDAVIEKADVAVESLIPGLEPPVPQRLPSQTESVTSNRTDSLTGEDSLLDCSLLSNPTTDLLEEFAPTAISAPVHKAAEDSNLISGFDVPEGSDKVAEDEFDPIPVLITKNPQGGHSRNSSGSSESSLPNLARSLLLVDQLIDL
Serine/threonine-protein kinase N1, sequence (Q16512 whole entry): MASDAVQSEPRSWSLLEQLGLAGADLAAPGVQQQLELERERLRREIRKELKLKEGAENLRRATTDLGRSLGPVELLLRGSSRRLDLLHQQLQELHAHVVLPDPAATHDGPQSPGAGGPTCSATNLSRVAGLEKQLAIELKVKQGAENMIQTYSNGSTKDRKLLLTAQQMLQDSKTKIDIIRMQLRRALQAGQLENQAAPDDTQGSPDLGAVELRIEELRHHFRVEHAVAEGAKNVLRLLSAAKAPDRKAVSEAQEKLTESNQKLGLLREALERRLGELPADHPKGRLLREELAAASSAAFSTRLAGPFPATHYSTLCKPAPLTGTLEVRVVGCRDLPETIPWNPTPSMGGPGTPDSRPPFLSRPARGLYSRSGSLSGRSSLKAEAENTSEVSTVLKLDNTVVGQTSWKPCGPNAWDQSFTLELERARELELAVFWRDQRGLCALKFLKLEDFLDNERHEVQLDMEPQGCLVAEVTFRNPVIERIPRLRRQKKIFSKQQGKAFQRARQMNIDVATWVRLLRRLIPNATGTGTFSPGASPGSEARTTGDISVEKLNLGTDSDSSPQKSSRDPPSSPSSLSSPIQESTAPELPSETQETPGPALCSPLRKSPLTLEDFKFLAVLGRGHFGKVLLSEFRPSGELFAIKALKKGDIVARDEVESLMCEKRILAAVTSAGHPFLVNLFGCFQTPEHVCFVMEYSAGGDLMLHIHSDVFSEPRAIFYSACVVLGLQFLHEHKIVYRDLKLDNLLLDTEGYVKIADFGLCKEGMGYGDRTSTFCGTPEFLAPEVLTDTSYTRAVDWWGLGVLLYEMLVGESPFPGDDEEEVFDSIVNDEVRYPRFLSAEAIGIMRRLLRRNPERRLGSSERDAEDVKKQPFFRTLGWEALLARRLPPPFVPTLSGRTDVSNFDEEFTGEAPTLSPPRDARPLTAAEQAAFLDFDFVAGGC
5'-AMP-activated protein kinase catalytic subunit alpha-1, sequence (Q13131 whole entry): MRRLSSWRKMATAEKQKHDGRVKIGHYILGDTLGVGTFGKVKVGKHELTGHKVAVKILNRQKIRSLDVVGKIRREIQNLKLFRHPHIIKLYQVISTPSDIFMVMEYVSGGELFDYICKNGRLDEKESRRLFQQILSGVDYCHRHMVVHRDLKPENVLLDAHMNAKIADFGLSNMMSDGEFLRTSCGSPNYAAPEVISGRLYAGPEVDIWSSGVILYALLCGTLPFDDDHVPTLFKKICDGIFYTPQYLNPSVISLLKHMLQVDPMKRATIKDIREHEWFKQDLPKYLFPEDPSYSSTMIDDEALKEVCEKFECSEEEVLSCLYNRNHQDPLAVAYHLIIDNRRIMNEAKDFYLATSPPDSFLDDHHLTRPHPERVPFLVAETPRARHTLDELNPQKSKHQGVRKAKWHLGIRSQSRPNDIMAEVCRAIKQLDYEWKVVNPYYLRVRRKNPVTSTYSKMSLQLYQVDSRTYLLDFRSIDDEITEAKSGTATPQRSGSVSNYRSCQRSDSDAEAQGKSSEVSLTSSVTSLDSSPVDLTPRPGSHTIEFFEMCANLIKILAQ

With `CCS(=O)(=O)N1CC(CC#N)(n2cc(-c3ncnc4[nH]ccc34)cn2)C1` [BARICITINIB], the Kd in test [1] was > 30 µM (inactive); on Ephrin type-B receptor 6 it was > 30 µM (inactive); in test [2], > 30 µM (inactive); in test [3], > 30 µM (inactive); in test [4], 0.243 µM (active); on LIM domain kinase 1, > 30 µM (inactive). The Kd in [5] is > 30 µM (inactive); in test [6], 0.046 µM (active); in test [7] it was 0.104 µM (active); in test [8], > 30 µM (inactive).
With `Cc1nc(N)sc1-c1ccnc(Nc2ccc(N3CCOCC3)cc2)n1` [CYC-116], the Kd at Ephrin type-B receptor 6 is 0.073 µM; in [2] it was > 30 µM (inactive); on LIM domain kinase 1, 0.984 µM (active); in test [5], > 30 µM (inactive); in test [6], 0.006 µM (active); in test [7], 13.2 µM (active).
Turning to `Cc1cc(Nc2cc(N3CCN(C)CC3)nc(/C=C/c3ccccc3)n2)n[nH]1` [ENMD-2076], the Kd (on Ephrin type-B receptor 6; in test [2]; in test [3]; in [5]; in test [7]; in test [8]) was > 30 µM (inactive) each time.
Regarding `O=C(Nc1cccc(Cl)c1)Nc1ncc(CCNc2ncnc3ccsc23)s1` [SNS-314], the Kd in test [2], in test [5], in test [6] and in test [7] was > 30 µM (inactive) in each case.
Take `Nc1nc(N)c2nc(-c3cccc(O)c3)c(-c3cccc(O)c3)nc2n1` [TG100-115]: the Kd in [2] and in [5] was > 30 µM (inactive) each time.
Turning to `CN1CCN(c2ccc3nc(-c4c(N)c5c(F)cccc5[nH]c4=O)[nH]c3c2)CC1` [DOVITINIB], the Kd in test [2] and in test [5] was > 30 µM (inactive) throughout.
As for `CCc1cnn2c(NCc3ccc[n+]([O-])c3)cc(N3CCCC[C@H]3CCO)nc12` [DINACICLIB], the Kd (in test [1]; at Ephrin type-B receptor 6; in test [9]; in test [3]; in test [4]; in test [5]) was > 30 µM (inactive) throughout. In addition, the Kd in test [6] and in test [7] was > 30 µM (inactive) throughout.
As to `OCCn1cc(-c2cnc3nnn(Cc4ccc5ncccc5c4)c3n2)cn1` [PF-04217903], the Kd (in test [1]; at Ephrin type-B receptor 6; in test [2]; in test [9]; in test [3]; in test [4]) was > 30 µM (inactive) throughout. Further, the Kd in test [5], in test [6] and in [7] was > 30 µM (inactive) in each case.
For `COC(=O)[C@@]1(O)C[C@H]2O[C@]1(C)n1c3ccccc3c3c4c(c5c6ccccc6n2c5c31)C(=O)NC4` [K-252A], the Kd at Ephrin type-B receptor 6 was > 30 µM (inactive); in [2] it was > 30 µM (inactive); in [9], 0.361 µM (active); in [3], 0.455 µM (active); in test [4], 0.173 µM (active); on LIM domain kinase 1, > 30 µM (inactive). Moreover, the Kd was > 30 µM (inactive) in test [5], 0.005 µM (active) in test [6], 0.264 µM (active) in [7] and 0.461 µM (active) in test [8].
Consider `O=C(Nc1ccc(-c2ccnc(Nc3ccc(N4CCOCC4)cc3)n2)cc1)C1CCCN1` (stereo unspecified) [XL-019], for which the Kd (in [1]; on Ephrin type-B receptor 6; in test [2]; in test [9]; in test [3]; in [4]) was > 30 µM (inactive) throughout. Further, the Kd in test [5] was > 30 µM (inactive); in [6] it was 0.006 µM (active); in test [7] it was > 30 µM (inactive); in test [8], > 30 µM (inactive).
As to `CCn1c(-c2nonc2N)nc2c(C#CC(C)(C)O)ncc(OC[C@H]3CCCNC3)c21` [GSK-690693], the Kd in test [2] and in test [5] was > 30 µM (inactive) each time.
Take `CN1CCC(COc2cnc(-c3cccc(Cn4nc(-c5cccc(C#N)c5)ccc4=O)c3)nc2)CC1` [TEPOTINIB]: the Kd (at Ephrin type-B receptor 6; in test [2]; in [9]; in test [3]; in test [4]; at LIM domain kinase 1) was > 30 µM (inactive) in each case. For the same molecule, the Kd in test [5], in [6], in [7] and in [8] was > 30 µM (inactive) throughout.
For `COc1cc2nccc(Oc3ccc(NC(=O)NC4CC4)c(Cl)c3)c2cc1C(N)=O` [LENVATINIB], the Kd (in test [1]; at Ephrin type-B receptor 6; in test [2]; in test [9]; in [4]; at LIM domain kinase 1) was > 30 µM (inactive) throughout. In addition, the Kd in test [5], in test [6], in test [7] and in test [8] was > 30 µM (inactive) in each case.
With `Cc1cn(-c2cc(NC(=O)c3ccc(C)c(Nc4nccc(-c5cccnc5)n4)c3)cc(C(F)(F)F)c2)cn1` [NILOTINIB], the Kd in test [2] and in [5] was > 30 µM (inactive) each time.
